# Laboratory results as given in US11730719B2, “Pharmaceutical composition” (KOWA COMPANY, LTD., priority 2017, dated 2023).
# Columns and labels:
# [1] = Hygroscopic property evaluation of pemafibrate crystal (Karl Fischer moisture content); assay type: physicochemical
# Description: A pemafibrate crystal was produced by recrystallizing pemafibrate from an ethyl acetate/heptane mixture in accordance with the method for producing a pemafibrate crystal as described in Non-Patent Document 1.
# 250 mg of the pemafibrate crystal was placed in a dish, and stored in an uncapped state (open state) in a dark place at 25° C. and 83% relative humidity (RH) for 3 months. The hygroscopic property was evaluated by measuring the moisture contents before and after the storage. The measurement of the moisture content was performed by a coulometric titration method in accordance with The Japanese Pharmacopoeia, 17th Edition, Moisture Content Measurement Method (Karl Fischer Method).
# [2] = Examination of stability of pemafibrate (open dish storage, related substances by HPLC); assay type: physicochemical
# Description: 250 mg of pemafibrate was placed in a dish, and stored in an uncapped state (open state) in a dark place at 40° C. and 75% relative humidity (RH) for 3 months.
# The sum of related substance-derived peak areas was evaluated in terms of a ratio (%) to the pemafibrate-derived peak area using an HPLC apparatus, and the ratio was defined as the “Total amount (%) of related substances”.
Structure (SMILES),"Moisture content (%) ([1]; After storage at 25° C. and 83% RH for 3 months, open state in dish, dark place)","Moisture content (%) ([1]; Before storage, 250 mg in dish)",Hygroscopic property ([1]; storage at 83% RH for 3 months),"Total amount (%) of related substances ([2]; After storage at 40° C. and 75% RH for 3 months, open state in dish, dark place) [%]","Total amount (%) of related substances ([2]; Before storage, 250 mg in dish) [%]",Stability against moisture content ([2]; storage at 75% RH for 3 months)
"CC[C@@H](Oc1cccc(CN(CCCOc2ccc(OC)cc2)c2nc3ccccc3o2)c1)C(=O)O [Pemafibrate crystal, (2R)-2-[3-([1,3-Benzoxazol-2-yl[3-(4-methoxyphenoxy)propyl]amino]methyl)phenoxy]butanoic acid]",<0.1,<0.1,not hygroscopic,–,–,–
"CC[C@@H](Oc1cccc(CN(CCCOc2ccc(OC)cc2)c2nc3ccccc3o2)c1)C(=O)O [Pemafibrate, (2R)-2-[3-([1,3-Benzoxazol-2-yl[3-(4-methoxyphenoxy)propyl]amino]methyl)phenoxy]butanoic acid]",–,–,–,<0.05,<0.05,stable
